Experimental data reported in patent EP4818168A1, “FUSED RING COMPOUND, PHARMACEUTICAL COMPOSITION THEREOF AND USE THEREOF” (priority 2023, dated 2025).

What follows are molecules tested against T1, AURKA (Homo sapiens, UniProt O14965) (assay: not given). Details: not given.
T1 construct: endogenous in cells; host or cells: Jurkat cells
T1 sequence (O14965 1-403): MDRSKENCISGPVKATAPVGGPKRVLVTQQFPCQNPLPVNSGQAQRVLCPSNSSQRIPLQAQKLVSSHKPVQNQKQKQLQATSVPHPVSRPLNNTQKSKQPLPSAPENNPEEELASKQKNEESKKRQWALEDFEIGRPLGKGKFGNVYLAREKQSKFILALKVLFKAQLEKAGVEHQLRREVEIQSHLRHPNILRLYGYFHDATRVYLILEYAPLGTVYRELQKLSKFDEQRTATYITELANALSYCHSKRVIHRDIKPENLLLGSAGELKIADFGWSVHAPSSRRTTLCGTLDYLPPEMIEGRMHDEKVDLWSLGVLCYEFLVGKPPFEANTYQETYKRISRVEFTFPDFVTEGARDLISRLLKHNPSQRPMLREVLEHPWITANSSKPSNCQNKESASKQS
Type: cell-based
Outline: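 AURKA degradation read by western blot: band signal, fluorescent or chemiluminescent, curve-fitted to derive DC50. Cells were Jurkat, plated at 1×10^6 cells/500 µL with compound, then lysed and blotted onto nitrocellulose, primary antibody overnight at 4°C.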

Row | SMILES | Percentage of AURKA Degradation Induced by 100 nM Compound in Jurkat Cells | Percentage of AURKA Degradation Induced by 1 µM Compound in Jurkat Cells
1 | O=C1CCN(c2ccc(N3CCC4(CC3)CN(C3CCN(c5ccc(Nc6ncc7c(n6)-c6ccc(Cl)cc6C(c6c(F)cccc6F)=NC7)cc5)CC3)CCO4)nc2)C(=O)N1 [Compound A346] | +++ (key: +: Degradation ≤ 30%; ++: 30% < Degradation ≤ 70%; +++: Degradation > 70%) | +++ (key: +: Degradation ≤ 30%; ++: 30% < Degradation ≤ 70%; +++: Degradation > 70%)
2 | O=C1CCN(c2ccc(N3CCN(C4CCN(c5ccc(Nc6ncc7c(n6)-c6ccc(Cl)cc6C(c6c(F)cccc6F)=NC7)cc5)CC4)CC3)nc2)C(=O)N1 [Compound A185] | +++ (key: +: Degradation ≤ 30%; ++: 30% < Degradation ≤ 70%; +++: Degradation > 70%) | +++ (key: +: Degradation ≤ 30%; ++: 30% < Degradation ≤ 70%; +++: Degradation > 70%)

Same assay, conditions: 100 nM compound, Jurkat cells, 24 h, Table 2

Row | SMILES | Percentage of AURKA Degradation Induced by 100 nM Compound in Jurkat Cells
3 | Cc1nc(N2CCC3(CC2)CC(NC(=O)c2ccc(Nc4ncc5c(n4)-c4ccc(Cl)cc4C(c4c(F)cccc4F)=NC5)cc2)C3)ccc1N1CCC(=O)NC1=O [Compound A112] | +++ (Degradation > 70%)
4 | O=C1CCN(c2ccc(N3CCC(OC4CN(c5ccc(Nc6ncc7c(n6)-c6ccc(Cl)cc6C(c6c(F)cccc6F)=NC7)cc5)C4)CC3)nc2)C(=O)N1 [Compound A254] | +++ (Degradation > 70%)
5 | CN1CCN(CC2CN(c3cccc(N4CCC(=O)NC4=O)c3)C2)Cc2cc(Nc3ncc4c(n3)-c3ccc(Cl)cc3C(c3c(F)cccc3F)=NC4)ccc21 [Compound A236] | +++ (Degradation > 70%)
6 | N#Cc1nc(N2CCN(C(=O)C3CCN(c4ccc(Nc5ncc6c(n5)-c5ccc(Cl)cc5C(c5c(F)cccc5F)=NC6)cc4)CC3)CC2)ccc1N1CCC(=O)NC1=O [Compound A323] | +++ (Degradation > 70%)
7 | O=C1CCN(c2ccc(C3CCN(CC4CN(c5ccc(Nc6ncc7c(n6)-c6ccc(Cl)cc6C(c6c(F)cccc6F)=NC7)cc5)C4)CC3)nc2)C(=O)N1 [Compound A249] | +++ (Degradation > 70%)
8 | O=C1CCN(c2ccc(N3CCC(C(=O)N4CCN(C56CC(Nc7ncc8c(n7)-c7ccc(Cl)cc7C(c7nccs7)=NC8)(C5)C6)C(=O)C4)CC3)nc2)C(=O)N1 [Compound A280] | +++ (Degradation > 70%)
9 | O=C1CCN(c2ccc(N3CCC4(CC3)CN(CC3CN(c5ccc(Nc6ncc7c(n6)-c6ccc(Cl)cc6C(c6c(F)cccc6F)=NC7)cc5)C3)CCO4)nc2)C(=O)N1 [Compound A353] | +++ (Degradation > 70%)
10 | O=C1CCN(c2ccc(N3CC4COCC(C3)N4C3CCN(c4ccc(Nc5ncc6c(n5)-c5ccc(Cl)cc5C(c5c(F)cccc5F)=NC6)cc4)CC3)nc2)C(=O)N1 [Compound A356] | +++ (Degradation > 70%)
11 | O=C1CCN(c2ccc(N3CCC4(CC3)CC(NC(=O)c3ccc(Nc5ncc6c(n5)-c5ccc(C7CC7)cc5C(c5ccccc5Cl)=NC6)cc3)C4)nc2)C(=O)N1 [Compound A142] | +++ (Degradation > 70%)
12 | O=C1CCN(c2ccc(N3CCN(C(=O)C4CCN(c5ccc(Nc6ncc7c(n6)-c6ccc(Cl)cc6C(c6c(F)cccc6F)=NC7)cc5)CC4)CC3)nc2)C(=O)N1 [Compound A277] | +++ (Degradation > 70%)

Same assay, conditions: 1 µM compound, Jurkat cells, 24 h, Table 2

Row | SMILES | Percentage of AURKA Degradation Induced by 1 µM Compound in Jurkat Cells
13 | Cc1nc(N2CCC3(CC2)CC(NC(=O)c2ccc(Nc4ncc5c(n4)-c4ccc(Cl)cc4C(c4c(F)cccc4F)=NC5)cc2)C3)ccc1N1CCC(=O)NC1=O [Compound A112] | +++ (Degradation > 70%)
14 | O=C1CCN(c2ccc(N3CCC(OC4CN(c5ccc(Nc6ncc7c(n6)-c6ccc(Cl)cc6C(c6c(F)cccc6F)=NC7)cc5)C4)CC3)nc2)C(=O)N1 [Compound A254] | ++ (30% < Degradation ≤ 70%)
15 | CN1CCN(CC2CN(c3cccc(N4CCC(=O)NC4=O)c3)C2)Cc2cc(Nc3ncc4c(n3)-c3ccc(Cl)cc3C(c3c(F)cccc3F)=NC4)ccc21 [Compound A236] | ++ (30% < Degradation ≤ 70%)
16 | N#Cc1nc(N2CCN(C(=O)C3CCN(c4ccc(Nc5ncc6c(n5)-c5ccc(Cl)cc5C(c5c(F)cccc5F)=NC6)cc4)CC3)CC2)ccc1N1CCC(=O)NC1=O [Compound A323] | +++ (Degradation > 70%)
17 | O=C1CCN(c2ccc(C3CCN(CC4CN(c5ccc(Nc6ncc7c(n6)-c6ccc(Cl)cc6C(c6c(F)cccc6F)=NC7)cc5)C4)CC3)nc2)C(=O)N1 [Compound A249] | +++ (Degradation > 70%)
18 | O=C1CCN(c2ccc(N3CCC(C(=O)N4CCN(C56CC(Nc7ncc8c(n7)-c7ccc(Cl)cc7C(c7nccs7)=NC8)(C5)C6)C(=O)C4)CC3)nc2)C(=O)N1 [Compound A280] | +++ (Degradation > 70%)
19 | O=C1CCN(c2ccc(N3CCC4(CC3)CN(CC3CN(c5ccc(Nc6ncc7c(n6)-c6ccc(Cl)cc6C(c6c(F)cccc6F)=NC7)cc5)C3)CCO4)nc2)C(=O)N1 [Compound A353] | +++ (Degradation > 70%)
20 | O=C1CCN(c2ccc(N3CC4COCC(C3)N4C3CCN(c4ccc(Nc5ncc6c(n5)-c5ccc(Cl)cc5C(c5c(F)cccc5F)=NC6)cc4)CC3)nc2)C(=O)N1 [Compound A356] | +++ (Degradation > 70%)
21 | O=C1CCN(c2ccc(N3CCC4(CC3)CC(NC(=O)c3ccc(Nc5ncc6c(n5)-c5ccc(C7CC7)cc5C(c5ccccc5Cl)=NC6)cc3)C4)nc2)C(=O)N1 [Compound A142] | +++ (Degradation > 70%)
22 | O=C1CCN(c2ccc(N3CCN(C(=O)C4CCN(c5ccc(Nc6ncc7c(n6)-c6ccc(Cl)cc6C(c6c(F)cccc6F)=NC7)cc5)CC4)CC3)nc2)C(=O)N1 [Compound A277] | +++ (Degradation > 70%)

The molecules below were run on H82 cells (assay: cells). Details: Homo sapiens, NCI-H82, read-out: IC50 in H82 Cells.
Type: cell-based
Outline: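 After 6 days' compound treatment at 37 °C (final DMSO 0.1%, RPMI1640/10% FBS), viable H82 cells were quantified by ATP-dependent CellTiter-Glo luminescence. Remaining activity was calculated against DMSO and medium wells, and a sigmoidal fit gave IC50.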

Row | SMILES | IC50 [nM]
23 | O=C1CCN(c2ccc(N3CCC4(CC3)CN(C3CCN(c5ccc(Nc6ncc7c(n6)-c6ccc(Cl)cc6C(c6c(F)cccc6F)=NC7)cc5)CC3)CCO4)nc2)C(=O)N1 [Compound A346] | < 1000
24 | O=C1CCN(c2ccc(N3CCN(C4CCN(c5ccc(Nc6ncc7c(n6)-c6ccc(Cl)cc6C(c6c(F)cccc6F)=NC7)cc5)CC4)CC3)nc2)C(=O)N1 [Compound A185] | < 1000

Same assay, conditions: Homo sapiens, NCI-H82; H82 cells, 4000 cells/well, CellTiter-Glo; read-out: IC50 in H82 Cells

Row | SMILES | IC50 [nM]
25 | Cc1nc(N2CCC3(CC2)CC(NC(=O)c2ccc(Nc4ncc5c(n4)-c4ccc(Cl)cc4C(c4c(F)cccc4F)=NC5)cc2)C3)ccc1N1CCC(=O)NC1=O [Compound A112] | < 1000
26 | O=C1CCN(c2ccc(N3CCC(OC4CN(c5ccc(Nc6ncc7c(n6)-c6ccc(Cl)cc6C(c6c(F)cccc6F)=NC7)cc5)C4)CC3)nc2)C(=O)N1 [Compound A254] | < 1000
27 | CN1CCN(CC2CN(c3cccc(N4CCC(=O)NC4=O)c3)C2)Cc2cc(Nc3ncc4c(n3)-c3ccc(Cl)cc3C(c3c(F)cccc3F)=NC4)ccc21 [Compound A236] | < 1000
28 | N#Cc1nc(N2CCN(C(=O)C3CCN(c4ccc(Nc5ncc6c(n5)-c5ccc(Cl)cc5C(c5c(F)cccc5F)=NC6)cc4)CC3)CC2)ccc1N1CCC(=O)NC1=O [Compound A323] | < 1000
29 | O=C1CCN(c2ccc(C3CCN(CC4CN(c5ccc(Nc6ncc7c(n6)-c6ccc(Cl)cc6C(c6c(F)cccc6F)=NC7)cc5)C4)CC3)nc2)C(=O)N1 [Compound A249] | < 1000
30 | O=C1CCN(c2ccc(N3CCC(C(=O)N4CCN(C56CC(Nc7ncc8c(n7)-c7ccc(Cl)cc7C(c7nccs7)=NC8)(C5)C6)C(=O)C4)CC3)nc2)C(=O)N1 [Compound A280] | < 1000
31 | O=C1CCN(c2ccc(N3CCC4(CC3)CN(CC3CN(c5ccc(Nc6ncc7c(n6)-c6ccc(Cl)cc6C(c6c(F)cccc6F)=NC7)cc5)C3)CCO4)nc2)C(=O)N1 [Compound A353] | < 1000
32 | O=C1CCN(c2ccc(N3CC4COCC(C3)N4C3CCN(c4ccc(Nc5ncc6c(n5)-c5ccc(Cl)cc5C(c5c(F)cccc5F)=NC6)cc4)CC3)nc2)C(=O)N1 [Compound A356] | < 1000
33 | O=C1CCN(c2ccc(N3CCC4(CC3)CC(NC(=O)c3ccc(Nc5ncc6c(n5)-c5ccc(C7CC7)cc5C(c5ccccc5Cl)=NC6)cc3)C4)nc2)C(=O)N1 [Compound A142] | < 1000
34 | O=C1CCN(c2ccc(N3CCN(C(=O)C4CCN(c5ccc(Nc6ncc7c(n6)-c6ccc(Cl)cc6C(c6c(F)cccc6F)=NC7)cc5)CC4)CC3)nc2)C(=O)N1 [Compound A277] | < 1000
